According to ChEMBL document CHEMBL4229381, “New cytokinin derivatives possess UVA and UVB photoprotective effect on human skin cells and prevent oxidative stress” (Eur J Med Chem, 2018):
The source made the active and inactive calls. The rule behind the calls is not given here.

Tests used:
HaCaT [1] = assay: Cytoprotection against phototoxicity in human HaCaT cells assessed as increase in cell viability at 3.9 to 31.3 uM preincubated for 60 mins followed by 10 J/cm2 UVA irradiation and measured after 24 hrs by neutral red uptake assay; assay type: functional, cell-based
[2] = Antioxidant activity assessed as trolox equivalent of AAPH-induced radical scavenging activity at 1 uM pretreated for 15 mins followed by […] challenge measured every 3 mins over 90 mins by ORAC-FL assay; assay type: functional
NHDF [3] = assay: Cytoprotection against phototoxicity in human NHDF cells assessed as increase in cell viability at 3.9 to 31.3 uM preincubated for 60 mins followed by 7.5 J/cm2 UVA irradiation and measured after 24 hrs by neutral red uptake assay; assay type: functional, cell-based
HaCaT [4] = assay: Cytoprotection against phototoxicity in human HaCaT cells assessed as increase in cell viability at 3.9 uM preincubated for 60 mins followed by 10 J/cm2 UVA irradiation and measured after 24 hrs by neutral red uptake assay; assay type: functional, cell-based
NHDF [5] = assay: Cytoprotection against phototoxicity in human NHDF cells assessed as increase in cell viability at 3.9 to 31.3 uM preincubated for 60 mins followed by 150 mJ/cm2 UVB irradiation and measured after 24 hrs by neutral red uptake assay; assay type: functional, cell-based
Amaranthus caudatus [6] = assay: Growth promoting activity in Amaranthus caudatus var. atropurpurea seeds by measuring betacyanin at 10^-4 mol/L after 48 hrs relative to control; assay type: functional
Caenorhabditis elegans = assay: Protection against juglone-induced oxidative stress in Caenorhabditis elegans BA17 (fem-1) at 100 uM preincubated for 3 days followed by juglone addition measured every hour for 12 ro 14 hrs by inverted microscopic analysis; assay type: functional, organism-based
Nicotiana tabacum = assay: Growth promoting activity in tobacco callus assessed as callus weight at 10^-5 mol/L after 4 weeks relative to control; assay type: functional
Triticum aestivum = assay: Anti-senescent activity in leaf of Triticum aestivum cv. Hereward seedlings by measuring chlorophyll retention at 10^-4 mol/L after 4 days relative to control; assay type: functional
Amaranthus caudatus [7] = assay: Growth promoting activity in Amaranthus caudatus var. atropurpurea seeds by measuring betacyanin at 10^-5 mol/L after 48 hrs relative to control; assay type: functional

O=C(/C=C/c1ccc(O)c(O)c1)O[C@H](Cc1ccc(O)c(O)c1)C(=O)O
Activity (HaCaT [1]): Active
Activity [2]: 9.14 equiv
Activity (NHDF [3]): Active
Activity (HaCaT [4]): Active
Activity (NHDF [5]): Active

c1coc(CNc2ncnc3c2ncn3C2CCCO2)c1 (configuration not stated)
Activity (Amaranthus caudatus [6]): 70%
Activity (Caenorhabditis elegans): Active
Activity (Nicotiana tabacum): 111%
Activity (Triticum aestivum): 125%
Activity (NHDF [3]): Active
Activity (NHDF [5]): Active

c1coc(CNc2ncnc3[nH]cnc23)c1 [KINETIN]
Activity (Nicotiana tabacum): 101%
Activity [2]: 0.71 equiv
Activity (Triticum aestivum): 98%
Activity (NHDF [3]): Active
Activity (Amaranthus caudatus [7]): 68%
Activity (NHDF [5]): Active
